From patent US20250268859A1, “OXAFURAMINE, (1R)-N-ETHYL-1-[(2R)-OXOLAN-2-YL]-2-[…], HYDROCHLORIDE AND DERIVATIVES THEREOF FOR TREATING ALZHEIMER'S DISEASE (AD), […] […], […] WITH LEWY BODIES (DLB), MIXED […], FRON[…] DEGENERATION (FTLD), AND PARKINSON'S DISEASE (PD)” (NLS Pharmaceutics AG, priority 2021, published 2025)

Tests used:
M4 (h) = biological target: T1, M4 (h) (Homo sapiens, UniProt P08173); assay: Radioligand binding panel, M4 (h) (antagonist radioligand); details: % inhibition of control specific binding
T1 construct: Eurofins (contract panel)
T1 sequence (P08173 1-479): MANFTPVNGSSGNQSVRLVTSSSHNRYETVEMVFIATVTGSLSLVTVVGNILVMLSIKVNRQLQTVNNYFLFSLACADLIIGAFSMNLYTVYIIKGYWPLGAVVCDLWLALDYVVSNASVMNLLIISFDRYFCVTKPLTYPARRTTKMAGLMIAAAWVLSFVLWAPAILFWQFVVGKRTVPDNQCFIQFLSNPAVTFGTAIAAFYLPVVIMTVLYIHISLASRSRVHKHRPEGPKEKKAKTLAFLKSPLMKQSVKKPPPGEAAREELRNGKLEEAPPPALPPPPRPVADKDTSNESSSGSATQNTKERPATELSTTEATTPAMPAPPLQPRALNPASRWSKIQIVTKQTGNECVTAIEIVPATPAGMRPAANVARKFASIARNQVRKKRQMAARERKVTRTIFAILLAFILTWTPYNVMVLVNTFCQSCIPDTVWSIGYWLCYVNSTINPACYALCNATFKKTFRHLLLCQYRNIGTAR
Protocol: (§1) Oxafuramine is tested at 10^−5 M, calculated as a % inhibition of control specific binding of a radioactively labeled ligand specific for each target.
This binding profile panel was broadly defined with roughly an equal number of selective, central and peripheral therapeutically relevant targets, including native animal tissues, radioligands and specific enzymes involved in cell cycle regulation in accordance with Eurofins Standard Operating Procedure (www.eurofins.fr).
For radioligand binding experiments, the half maximal inhibitory concentration (IC50) and the half maximal effective concentration (EC50) values were determined (via computer software) by nonlinear regression analysis of the competition curves using Hill equation curve fitting. The inhibition constants (Ki) were calculated using the Cheng-Prusoff equation (Ki=IC50/(1+(L/KD)), where L is the concentration of radioligand in the assay, and KD is the affinity of the radioligand for the receptor.
The results are expressed as a % control specific binding ([measured specific binding/control specific binding]×100) and as a % inhibition of control specific binding (100−[(measured specific binding/control specific binding)×100]) obtained in the presence of the test compounds. […]

Relaxin-3 (RXFP3) (h) = biological target: T2, Relaxin-3 (RXFP3) (h) (Homo sapiens, UniProt Q9NSD7); assay: Relaxin-3 (RXFP3) (h) (agonist radioligand); assay type: binding
T2 sequence (Q9NSD7 1-469): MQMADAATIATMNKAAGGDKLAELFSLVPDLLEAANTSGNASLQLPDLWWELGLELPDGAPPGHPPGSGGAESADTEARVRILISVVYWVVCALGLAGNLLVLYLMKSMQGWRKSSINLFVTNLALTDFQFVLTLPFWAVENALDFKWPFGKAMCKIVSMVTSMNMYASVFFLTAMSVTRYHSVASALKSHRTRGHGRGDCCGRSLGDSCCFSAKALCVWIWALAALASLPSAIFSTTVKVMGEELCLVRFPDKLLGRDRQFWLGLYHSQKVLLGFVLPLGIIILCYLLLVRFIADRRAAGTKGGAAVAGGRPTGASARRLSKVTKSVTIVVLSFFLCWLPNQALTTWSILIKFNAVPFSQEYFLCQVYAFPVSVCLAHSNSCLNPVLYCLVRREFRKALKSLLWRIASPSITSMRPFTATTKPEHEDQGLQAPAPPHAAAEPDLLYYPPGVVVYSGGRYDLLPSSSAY
Protocol: as §1
The results are expressed as a % control specific binding ([measured specific binding/control specific binding]×100) and as a % inhibition of control specific binding (100−[(measured specific binding/control specific binding)×100]) obtained in the presence of the test compounds.
Results showing an inhibition (or stimulation) lower than 25% are not considered significant and mostly attributable to variability of the signal around the control level. […]
• 1. cAMP Hunter cell lines were expanded from freezer stocks according to standard procedures. • 2. Cells were seeded in a total volume of 20 μL into white walled, 384-well microplates and incubated at 37° C. for the appropriate time prior to testing. • 3. cAMP modulation was determined using the DiscoverX HitHunter cAMP XS+ assay. […]
[formula] • 6. For Gi positive allosteric mode assays, percentage modulation is calculated using the following formula: % Modulation=100%×(1−(mean RLU of test sample−mean RLU of MAX control) /(mean RLU of EC20 control−mean RLU of MAX control)). • 7. […]

CCN[C@H](Cc1ccccc1)[C@H]1CCCO1 [Oxafuramine, (1R)—N-ethyl-1-[(2R)-oxolan-2-yl]-2-phenylethanamine]
inhibition at 10 µM (M4 (h); 10^−5 M): ~51% | % Inhibition at 10^−5M, M4 (h) (antagonist radioligand) (M4 (h)): 50.8% | % Inhibition at 10^−5M, Relaxin-3 (RXFP3) (h) (agonist radioligand) (Relaxin-3 (RXFP3) (h)): weakly target | inhibition at 10 µM (Relaxin-3 (RXFP3) (h); 10^−5 M): 16.5%
